Reference: US11795196B2, “Mitochondria-targeting peptides” (Stealth BioTherapeutics Corp., priority 2017, dated 2023)

What was measured:
isolated rat hearts = test: Ischemia-reperfusion injury, Langendorff isolated heart preparation; settings: 30 min LAD occlusion + 120 min reperfusion, compound 1 μM in perfusion solution, mean; for White Necrotic Area, % of area at risk: only white necrotic tissue
rat [1] = test: Rat Myocardial Infarction Model; assay type: in vivo; settings: s.c. 2×2 mg/kg, 30 min before ischemia and 5 min before reperfusion, 30 min LAD occlusion, 24 hours post-reperfusion, n=8
Method: The Rat Myocardial Infarction Model was performed by IPST Therapeutique Inc, Sherbrooke, Quebec, Canada. The animals were randomized in terms of even distribution between treatment groups based on their body weight by the Study Director with the aim of scheduling animal from each treatment group for each day of surgery (when possible). • 1) Sham group: size of the group: n=2. Route of administration: n/a; • 2) Vehicle group: size of the group: n=8. Route of administration: s.c.; • 3) Testing article group: size of the group: n=8. Route of administration: s.c.; Treatment dose: 2×2 mg/kg, 30 min before ischemia and 5 min before reperfusion. Experimental Procedures Study Design • 1) On the day of the surgery, the rat will be anaesthetized with a mixture of 2 to 2.5%. isoflurane USP (Abbot Laboratories, Montreal Canada) in oxygen, and placed on a heating pad to maintain body temperature. • 2) The animal will be intubated and immediately ventilated by means of a positive-pressure rodent respirator set at 10 mL/kg bodyweight at a frequency of 65-70 strokes/min. • 3) A baseline blood sample (1 mL) will be taken from the jugular vein for baseline biomarkers quantification. The blood will be collected in lithium heparin microtainers and centrifuged at 3000 rpm, at 4±2° C. for 10 minutes. The plasma will be aliquoted in 2 samples of equal volume (approximately 250 μL). […] A 1 mL blood sample will be taken from the jugular vein, for 24 hrs biomarkers quantification. • 11) The heart will be excised and mounted into a Langendorff apparatus. […]

rat [2] = test: Rat Acute Kidney Injury (AKI) Model, renal ischemia-reperfusion; assay type: in vivo; set-up: concentration or dose not given beside the values; settings: 30 minutes renal artery occlusion of both kidneys, 24 hours after reperfusion, relative to vehicle
Method: The Rat Acute Kidney Injury (AKI) Model was performed by IPST Therapeutique Inc, Sherbrooke, Quebec, Canada. The animals were randomized in terms of even distribution between treatment groups based on their body weight by the Study Director with the aim of scheduling animal from each group at each day of surgery. The rats will be given free access to food and water. Experimental Procedures Induction of Ischemia-Reperfusion • 1. Rats will be anaesthetized with isoflurane USP (Abbot Laboratories, Montreal Canada) 2% in oxygen and placed on a heated pad to maintain body temperature. The ECG and oxygen saturation will be monitored for the entire surgical process. The body temperature will be monitored with a probe thermometer introduced into the abdomen, very close to the kidneys. • 2. A 1 mL blood draw will be taken from the jugular vein. The blood will be collected into lithium heparin tubes and centrifuged at 3000 rpm for 10 min. to obtain the plasma. The plasma will be separated into 200 μL aliquot and stored at −20° C. until dosage of biomarkers. • 3. The abdomen will be disinfected with providone iodine and alaparotomy will be performed. • 4. The kidneys will be exposed and a temporary suture will be placed around renal artery of the two kidneys. Renal ischemia will be visually confirmed by a gradual changed of the kidneys colour going from red to dark purple within a couple of minutes following the start of the ischemia. During the ischemia, the kidneys will be kept moist and warm using a heat lamp and sterile gauze soaked in warm (37° C.) saline. The temperature will be monitored with a probe thermometer introduced into the abdomen, very close to the kidneys. • 5. After 30 minutes of occlusion, the suture will be removed. • 6. The abdominal wounds will be closed with 4-0 silk suture, and the animal will be return to its cage. • 7. Twenty-four hours after reperfusion the rats will be re-anesthetized. A second blood draw will be taken as was done before the ischemia. • 8. Sham will be treated under same conditions as vehicle, except, kidneys will not be subjected to ischemic conditions. Detection of Biomarkers A 200 μL aliquot of plasma sample will be taken before the ischemia and 24 hours following the ischemia; both will be sent to the clinical laboratory of the CHUS (Centre Hospitalier Universitaire de Sherbrooke, Quebec, Canada) for detection of plasma level of creatinine (p.Cr) and Blood Urea Nitrogen (BUN). Computer Systems The following are the validated computer systems to be used during the conduct of this study. The analysis software will be Microsoft Office Excel 2007 installed on networked personal computers running Microsoft Windows8, XP Professional or Vista. Data Analysis Values are presented as means±SEM (standard error of the means) and presented by the symbol+on the graph. Repeat un-paired Student's t-tests were performed in Microsoft Excel 2007 on all experimental data. Differences were considered significant when p≤ 0.05. The vehicle group was compared to the sham group while the test article was compared to the vehicle group. The plasma creatinine post-UR (% mean of vehicle) was calculated using the following formula:
[formula] Where: p.Cr=Plasma creatinine Mean Δ plasma creatinine in sham group=Mean (plasma creatinine 24 h post-isch.−plasma creatinine pre-isch.) in sham group Mean Δ plasma creatinine in vehicle group=Mean ((plasma creatinine 24 h post-inch.−plasma creatinine pre-isch.)−Mean Δ plasma creatinine in sham group) in vehicle group The BUN post-I/R (% mean of vehicle) was calculated using the following formula:
[formula] […]

| Structure (SMILES) | Infarct size, % of area at risk (isolated rat hearts) [%] | White Necrotic Area, % of area at risk (isolated rat hearts) [%] | Infarct size (%), Mean (rat [1]) [%] | BUN, % Protection, Mean (rat [2]) [%] | Plasma Creatinine, % Protection, Mean (rat [2]) [%] |
| --- | --- | --- | --- | --- | --- |
| Cc1cc(O)cc(C)c1C[C@H](NC(=O)[C@H](N)CCCNC(=N)N)C(=O)N[C@@H](CCCCN)c1nc(Cc2ccccc2)no1 [Example 31, (R)-2-amino-N-((S)-1-(((S)-5-amino-1-(3-benzyl-1,2,4-oxadiazol-5-yl)pentyl)amino)-3-(4-hydroxy-2,6-dimethylphenyl)-1-oxopropan-2-yl)-5-guanidinopentanamide] | 35 | 22 | 16.4 | 81.4 | 86.2 |
| Cc1cc(O)cc(C)c1C[C@H](NC(=O)[C@H](N)CCCNC(=N)N)C(=O)N[C@@H](CCCCN)c1nc(Cc2ccc(C(C)(C)C)cc2)no1 [Example 33, (R)-2-amino-N-((S)-1-(((S)-5-amino-1-(3-(4-(tert-butyl)benzyl)-1,2,4-oxadiazol-5 yl)pentyl)amino)-3-(4-hydroxy-2,6-dimethylphenyl)-1-oxopropan-2-yl)-5-guanidinopentanamide] |  |  |  | 35.9 | 38.9 |
| Cc1cc(O)cc(C)c1C[C@H](NC(=O)[C@H](N)CCCNC(=N)N)C(=O)N[C@@H](CCCCN)c1nc(CC23CC4CC(CC(C4)C2)C3)no1 [Example 37, (R)-N-((S)-1-(((S)-1-(3-(adamantan-1-ylmethyl)-1,2,4-oxadiazol-5-yl)-5-aminopentyl)amino)-3-(4-hydroxy-2,6-dimethylphenyl)-1-oxopropan-2-yl)-2-amino-5-guanidinopentanamide] |  |  | 29.2 | 44.3 | 30.7 |
| Cc1cc(O)cc(C)c1C[C@H](NC(=O)[C@H](N)CCCNC(=N)N)C(=O)N[C@@H](CCCCN)c1nc(C23CC4CC(CC(C4)C2)C3)no1 [Example 38, D-Arg-DMT-NH((S)-1-(3-(adamantan-1-yl)-1,2,4-oxadiazol-5-yl)-5-aminopent-1-yl)] | 31 | 15 | 30.6 |  |  |
| Cc1cc(O)cc(C)c1C[C@H](NC(=O)[C@H](N)CCCn1ccnc1N)C(=O)N[C@@H](CCCN)c1nc(CC2CCCCC2)no1 [Example 42, (R)-2-amino-N-((S)-1-(((S)-4-amino-1-(3-(cyclohexylmethyl)-1,2,4-oxadiazol-5 yl)butyl)amino)-3-(4-hydroxy-2,6-dimethylphenyl)-1-oxopropan-2-yl)-5-(2-amino-1H-imidazol-1-yl)pentanamide] |  |  |  | 50.4 | 53.4 |
| Cc1cc(O)cc(C)c1C[C@H](NC(=O)[C@H](N)CCCNC(=N)N)C(=O)N[C@@H](Cc1c[nH]cn1)c1nc(CCc2ccccc2)no1 [Example 53, (R)-N-((S)-1-(((S)-2-(1H-imidazol-4-yl)-1-(3 phenethyl-1,2,4-oxadiazol-5 yl)ethyl)amino)-3-(4-hydroxy-2,6-dimethylphenyl)-1-oxopropan-2-yl)-2-amino-5-guanidinopentanamide] | 30 | 21 |  |  |  |
| Cc1cc(O)cc(C)c1C[C@H](NC(=O)[C@H](N)CCNC(=N)N)C(=O)N[C@@H](CCCCN)c1nc(Cc2ccccc2)no1 [Example 64, (R)-2-amino-N-((S)-1-(((S)-5-amino-1-(3-benzyl-1,2,4-oxadiazol-5 yl)pentyl)amino)-3-(4-hydroxy-2,6-dimethylphenyl)-1-oxopropan-2-yl)-4-guanidinobutanamide] | 38 | 20 |  |  |  |
| Cc1cc(O)cc(C)c1C[C@H](NC(=O)[C@H](N)CCCn1ccnc1N)C(=O)N[C@@H](CCCCN)c1nc(CC2CCCCC2)no1 [Example 65, (R)-2-amino-N-((S)-1-(((S)-5-amino-1-(3-(cyclohexylmethyl)-1,2,4-oxadiazol-5 yl)pentyl)amino)-3-(4-hydroxy-2,6-dimethylphenyl)-1-oxopropan-2-yl)-5-(2-amino-1H-imidazol-1-yl)pentanamide] | 24 | 17 |  |  |  |
| Cc1cc(O)cc(C)c1C[C@H](NC(=O)[C@H](N)CCNC(=N)N)C(=O)N[C@@H](Cc1c[nH]cn1)c1nc(CC23CC4CC(CC(C4)C2)C3)no1 [Example 68, (R)-N-((S)-1-(((S)-1-(3-(adamantan-1-yl)methyl-1,2,4-oxadiazol-5-yl)-2-(1H-imidazol-4 yl)ethyl)amino)-3-(4-hydroxy-2,6-dimethylphenyl)-1-oxopropan-2-yl)-2-amino-4-guanidinobutanamide] | 35 | 18 |  |  |  |
| Cc1cc(O)cc(C)c1C[C@H](NC(=O)[C@@H](CCN)NC(=N)N)C(=O)N[C@@H](CCCN)c1nc(Cc2ccccc2)no1 [Example 82, (R)-4-amino-N-((S)-1-(((5)-4-amino-1-(3-benzyl-1,2,4-oxadiazol-5-yl)butyl)amino)-3-(4-hydroxy-2,6-dimethylphenyl)-1-oxopropan-2-yl)-2-guanidinobutanamide] | 42 | 24 |  | 25.5 | 32.0 |
